From patent US20120245029A1, “NOVEL PHOSPH(ON)ATE- AND SULF(ON)ATE-BASED PHOSPHATE MODIFIED NUCLEOSIDES USEFUL AS SUBSTRATES FOR POLYMERASES AND AS ANTIVIRAL AGENTS” (priority 2009, published 2012)

Key:
Format in all cases: biochemical
HIV-1 RT [1] = target: T1, HIV-1 RT (Human immunodeficiency virus type 1 group M subtype B, UniProt P04585); test: Gel-based single nucleotide incorporation assay by HIV-1 RT (primer-template P1T1); details: for % of P + 1 / % of P + 2: P1T1 125 nM
T1 construct: HIV-1 Reverse Transcriptase serves, in the HIV-1 viral replication process, as catalyst; purchased Ambion
Protocol: (§1) DNA polymerase reactions: end-labeled primer was annealed to its template by combining primer and template in a molar ratio of 1:2 and heating the mixture to 70° C. for 10 minutes followed by slow cooling to room temperature over a period of 1.5 hour. For the incorporation of a modified nucleoside, a series of 20 μL-batch reactions was performed with the enzyme HIV-1 RT (Ambion, 10 U/μL stock soln, specific activity 8.095 Wring, concentration 1.2 mg/mL). The final mixture contained 125 nM primer template complex, RT buffer (250 mM Tris.HCl, 250 mM KCl, 50 mM MgCl2, 2.5 mM spermidine, 50 mM dithiothreitol (DTT); pH 8.3), 0.025 U/μL HIV-1 RT, and different concentrations of the phosphoramidate to be tested (1 mM, 500 μM, 200 μM and 100 μM).
(§2) Electrophoresis: all polymerase reaction aliquots (2.5 μL) were quenched by the addition of 10 μL of loading buffer (90% formamide, 0.05% bromophenol blue, 0.05% xylene cyanol and 50 mM ethylenediaminetetraacetic acid (EDTA)). Samples were heated at 85° C. for 5 minutes prior to analysis by electrophoresis for 2.5 hours at 2000 V on a 30 cm×40 cm×0.4 mm 20% (19:1 mono:bis) denaturing gel in the presence of a 100 mM Tris-borate, 2.5 mM EDTA buffer; pH 8.3. Products were visualized by phosphorimaging. The amount of radioactivity in the bands corresponding to the products of enzymatic reactions was determined by using the imaging device Cyclone@ and the Optiquant image analysis software (Perkin Elmer).
Here, the ability of phosphoramidate analogues as substrate for HIV-1 RT was investigated by the gel-based single nucleotide incorporation assay. The natural nucleoside triphosphate (dATP) was used as reference.
The ability of HIV-1 reverse transcriptase to incorporate phosphoramidate analogues 2-6 was analysed by gel-based single-nucleotide-incorporation assays using the primer-template complex P1T1.

HIV-1 RT [2] = target: T1, HIV-1 RT; test: Elongation of primer P1 directed by template T2 by HIV-1 RT; details: P1T2; for P+7 product: 60 min
Protocol: as §1, §2
In order to further investigate the potentiality of the leaving groups of this invention, L-Cys-dAMP (2) and 3-phosphono-L-Ala-dAMP (3) were tested in the template dependent incorporation of more than one phosphoramidate nucleotides by HIV-1 RT (FIG. 4). For this purpose, Primer P1 and template T2 containing an overhang of seven thymidine residues and four nucleobases (GGAC) at the 3′-end were used.
In order to investigate the strand elongation capacity of compound 2, a template dependent incorporation of more than one nucleotide experiment was carried out. In this experiment HIV-1 RT and P1T2 duplex, where seven thymidine bases overhang of the template is flanked by four non-thymidine units at the 3′-end were used. A range of concentration of the building block was incubated with the primer-template complex and 0.025 U/μL of enzyme at the appropriate temperature, samples were quenched after 15, 30, 60, 90 and 120 minutes respectively and analyzed by 20% polyacrylamide gel electrophoresis.

HIV-1 RT [3] = target: T1, HIV-1 RT; test: Steady-state kinetics of single nucleotide incorporation by HIV-1 RT
Protocol: The efficiency of incorporation by HIV-1 RT of 3-phosphono-L-Ala-dAMP (3) was investigated by determination of the kinetic parameters Km and Vmax. The steady-state kinetics assay was carried out as follows. The reaction was started by adding HIV-1 RT to P1-T1 complex, buffer, 3-phosphono-L-Ala-dAMP (3) and dATP. The final mixture (20 μL) contained 0.025 U/μL HIV-1 RT, buffer, 125 nM primer-template complex, and various concentrations 3-phosphono-L-Ala-dAMP and dATP. The range of concentrations for phosphoamidates was optimized according to a Km value for the incorporation of an individual nucleotide. In the case of HIV-1 RT, reaction mixtures containing the enzyme in concentration (0.025 U/μL) to attain 5-25% conversion and appropriate substrate concentration (0.5-100 μM used for 3-phosphono-L-Ala-dAMP (3) and 0.1-10 μM used for dATP) were incubated at 37° C. and run for 8-10 different time intervals (2-20 minutes). The incorporation velocities were calculated based on the percentage of single-nucleotide extension product (P+1 band). The kinetic parameters (Vmax and Km) were determined by plotting V (nM/min) versus substrate concentration (μM) and fitting the data point to a nonlinear Michaelis-Menten regression using GraphPad Prism software.

Taq DNA polymerase = Taq DNA polymerase (Thermus aquaticus, UniProt P19821); test: Single nucleotide incorporation using Taq DNA polymerase; details: P1T1
Protocol: 3-phosphono-L-Ala-dAMP (3) was tested as a substrate for Taq DNA polymerase (data in FIG. 5).

HIV-1 RT [4] = target: T1, HIV-1 RT; test: Gel-based single nucleotide incorporation assay by HIV-1 RT (primer-template P1T1)
[5] = P1T1 125 nM, HIV-1 RT 0.025 U/μL, 37° C.

Sequence of Taq DNA polymerase (P19821 whole entry): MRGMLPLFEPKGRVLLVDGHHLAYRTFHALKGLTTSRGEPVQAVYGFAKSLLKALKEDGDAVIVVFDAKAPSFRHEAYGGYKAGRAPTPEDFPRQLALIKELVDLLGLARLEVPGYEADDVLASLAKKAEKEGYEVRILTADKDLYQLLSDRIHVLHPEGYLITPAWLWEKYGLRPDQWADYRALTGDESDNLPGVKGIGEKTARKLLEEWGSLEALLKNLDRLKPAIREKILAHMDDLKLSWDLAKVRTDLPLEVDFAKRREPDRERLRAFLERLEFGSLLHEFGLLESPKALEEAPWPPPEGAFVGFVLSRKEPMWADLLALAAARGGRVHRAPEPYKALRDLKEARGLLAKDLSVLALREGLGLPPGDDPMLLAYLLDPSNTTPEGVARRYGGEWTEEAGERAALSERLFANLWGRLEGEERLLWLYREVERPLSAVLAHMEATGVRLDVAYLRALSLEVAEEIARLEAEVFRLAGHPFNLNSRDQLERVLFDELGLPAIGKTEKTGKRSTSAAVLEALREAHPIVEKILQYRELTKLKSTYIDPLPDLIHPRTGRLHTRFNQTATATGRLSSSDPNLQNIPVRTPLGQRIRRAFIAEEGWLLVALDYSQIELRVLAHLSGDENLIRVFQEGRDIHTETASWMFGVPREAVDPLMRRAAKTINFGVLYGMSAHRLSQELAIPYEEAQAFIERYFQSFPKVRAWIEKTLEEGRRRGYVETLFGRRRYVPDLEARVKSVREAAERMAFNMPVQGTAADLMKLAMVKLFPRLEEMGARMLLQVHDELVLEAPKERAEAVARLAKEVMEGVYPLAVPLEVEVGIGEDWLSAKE

## Nc1ncnc2c1ncn2[C@H]1C[C@H](O)[C@@H](COP(=O)(O)N[C@@H](CP(=O)(O)O)C(=O)O)O1 [Compound 3, 2′-deoxyadenosine-5′-(3-phosphono-L-alanine) phosphoramidate]
HIV-1 RT [1]; 50 μM substrate, 20 min
  % of P + 1: 89.9%
HIV-1 RT [1]; 50 μM substrate, 30 min
  % of P + 1: 92.6%
HIV-1 RT [1]; 50 μM substrate, 60 min
  % of P + 1: 94.6%
HIV-1 RT [1]; 50 μM substrate, 120 min
  % of P + 1: 95.9%
HIV-1 RT [1]; 100 μM substrate, 10 min
  % of P + 1: 94.8%
HIV-1 RT [1]; 100 μM substrate, 20 min
  % of P + 1: 97.7%
HIV-1 RT [1]; 100 μM substrate, 30 min
  % of P + 1: 97.6%
HIV-1 RT [1]; 100 μM substrate, 60 min
  % of P + 1: 97.9%
HIV-1 RT [1]; 100 μM substrate, 120 min
  % of P + 1: 97.5%
HIV-1 RT [1]; 200 μM substrate, 10 min
  % of P + 1: 91.7%
  % of P + 2: 3.0%
HIV-1 RT [1]; 200 μM substrate, 20 min
  % of P + 1: 93.8%
  % of P + 2: 3.4%
HIV-1 RT [1]; 200 μM substrate, 30 min
  % of P + 1: 93.7%
  % of P + 2: 3.6%
HIV-1 RT [1]; 200 μM substrate, 60 min
  % of P + 1: 93.0%
  % of P + 2: 4.3%
HIV-1 RT [1]; 200 μM substrate, 120 min
  % of P + 1: 94.2%
  % of P + 2: 3.6%
HIV-1 RT [1]; 500 μM substrate, 10 min
  % of P + 1: 88.8%
  % of P + 2: 7.5%
HIV-1 RT [1]; 500 μM substrate, 20 min
  % of P + 1: 88.4%
  % of P + 2: 9.6%
HIV-1 RT [1]; 500 μM substrate, 30 min
  % of P + 1: 86.9%
  % of P + 2: 11.1%
HIV-1 RT [1]; 500 μM substrate, 60 min
  % of P + 1: 87.0%
  % of P + 2: 11.2%
HIV-1 RT [1]; 500 μM substrate, 120 min
  % of P + 1: 87.0%
  % of P + 2: 11.5%
HIV-1 RT [1]; 1 mM substrate, 10 min
  % of P + 1: 80.6%
  % of P + 2: 16.7%
HIV-1 RT [1]; 1 mM substrate, 20 min
  % of P + 1: 73.7%
  % of P + 2: 23.7%
HIV-1 RT [1]; 1 mM substrate, 30 min
  % of P + 1: 75.9%
  % of P + 2: 22.1%
HIV-1 RT [1]; 1 mM substrate, 60 min
  % of P + 1: 76.3%
  % of P + 2: 21.9%
HIV-1 RT [1]; 1 mM substrate, 120 min
  % of P + 1: 76.4%
  % of P + 2: 21.7%
HIV-1 RT [1]; HIV-1 RT single nucleotide incorporation
  fold more efficient incorporation compared with L-Cys-dAMP (2): 10.7 fold
HIV-1 RT [2]; 50 μM and 100 μM substrate
  primer extension products (in words): only extended a primer with two and three adenine nucleobases
HIV-1 RT [2]; 200 μM substrate
  P+7 product: 7.1%
HIV-1 RT [2]; 500 μM substrate
  P+7 product: 15.9%
HIV-1 RT [2]; 1 mM substrate
  P+7 product: 23.8%
HIV-1 RT [2]
  incorporation activity relative to natural dATP: less active than the natural dATP
  misincorporation (P+8): did not result in any misincorporation
HIV-1 RT [3]
  Km fold higher than the natural substrate dATP: 15 fold
  Vmax fold lower than dATP: 1.7 fold
HIV-1 RT [3]; [5]
  Km: 14.3 ± 3.78 µM
  Vmax: 19.21 ± 1.58 nM/min
Taq DNA polymerase
  incorporation and primer extension by Taq DNA polymerase (in words): less active than HIV-1 RT
HIV-1 RT [4]; 10 μM substrate
  Incorporation (conversion to a P+1 strand): 27.1%
HIV-1 RT [4]; 50 μM substrate, 10 min, P1T1 125 nM
  % of P + 1: 84.5%
HIV-1 RT [4]; among phosphoramidate analogues 1-5
  substrate quality for HIV-1 RT (in words): best incorporation efficiency
